The record followed here is US11529335B2, “Compositions and methods for treating cancer” (UNIVERSITY OF IOWA RESEARCH FOUNDATION, priority 2020, dated 2022).

Where only a bound is given, the exact number is not on record here.

The subject of experiment [1] is GSH in A375 xenograft tumor samples. Briefly: GSH concentrations in tumor samples from treated mice. To be noted: mice treated with BSO, 15 mM in drinking water. Type of experiment: in vivo, mice (Athymic nu/nu). How it is done: (§1) 2-Mercaptoethanol is a reducing agent that leads to reduction of disulphide bonds to produce thiols. […] The effect of eliminating GSH in vivo was tested by treating mice (Athymic nu/nu) bearing A375 xenografts with rodent diet (AIN-76A) containing PLX4720 ([…], 416 mg/kg of diet) alone and in combination with BSO (15 mM in drinking water). […] Tumor xenografts in mice treated with the AIN-76 diet mixed with PLX4720 were responsive initially, but approximately 80% of these tumors acquired resistance to BRAFi treatment alone within 140 days (i.e., 20% complete responses; FIG. 2). On the contrary, the combination of BSO with PLX4720 produced nearly 90% complete and durable tumor responses (FIG. 4). […] Tumor progression was defined as a 50% increase (approximately a two standard deviation increase) in tumor volume from study initiation.
Female athymic nu/nu mice (age six weeks) were purchased from Envigo (previously Harlan Laboratories) and housed in the Animal Care Facility at The University of Iowa (Iowa City, Iowa). All procedures were approved by The University of Iowa Institutional Animal Care and Use Committee. All mice were naïve to treatments at the time of xenograft. For each xenograft, 1-3×10^6 cells (451LuBR and A375) were implanted subcutaneously in a 1:1 suspension of Matrigel (Corning) and PBS (flank) using a 27-gauge needle. […]

The subject of another experiment is A375 xenografts. Briefly: A375 xenografts in athymic nu/nu mice: tumor growth, response, survival, body weight. Type of experiment: in vivo. How it is done:
as §1
Female athymic nu/nu mice (age six weeks) were purchased from Envigo (previously Harlan Laboratories) and housed in the Animal Care Facility at The University of Iowa (Iowa City, Iowa). All procedures were approved by The University of Iowa Institutional Animal Care and Use Committee. All mice were naïve to treatments at the time of xenograft. For each xenograft, 1-3×10^6 cells (451LuBR and A375) were implanted subcutaneously in a 1:1 suspension of Matrigel (Corning) and PBS (flank) using a 27-gauge needle. For all in vivo studies, the mice were randomly assigned to experimental groups post-implant. Animals developed tumors within 7-10 days post-implant. Initiation of treatments was standardized to the time that tumor volume ([(longest length)×(smallest length^2)]/2) reached 80-100 mm^3.
The dose and mode of delivery for PBA was determined by analyzing the pharmacokinetics C-14 labeled PBA in mice (FIG. 5). These drugs were administered alone and in combination depending on the experimental group. The mice were monitored for their state of health every day. Tumor volume and animal weights were measured twice per week. Mice were euthanized when the observed state of health reached the endpoint according to the approved IACUC protocol or when the tumor volume reached 1500 mm^3.
Statistics was conducted using the tumor sizes (mm^3) that were obtained periodically throughout the experiments, resulting in repeated measurements for each mouse. Linear mixed effects regression models were used to estimate and compare treatment group-specific tumor growth curves. Pairwise comparisons were performed to identify treatment group differences in the growth curves. The Kaplan-Meier method was used to estimate the survival curves, and group comparisons were made using the log rank test. Mice who developed ulcerations were censored at day of euthanasia. […]

In the case of `CCCCS(=N)(=O)CCC(N)C(=O)O` (centres unmarked) [BSO, buthionine sulfoximine], the “GSH concentrations in tumor samples vs controls” value in experiment [1] is recorded as “significantly lower”. Besides, the “tumor growth rate versus untreated controls” value with A375 xenografts (BSO alone, 15 mM in drinking water, A375 xenografts) is reported as “No significant difference”.
In the case of `CCCS(=O)(=O)Nc1ccc(F)c(C(=O)c2c[nH]c3ncc(Cl)cc23)c1F` [PLX4720], the “complete (and durable) tumor responses” value in the experiment on A375 xenografts (A375 xenografts, PLX4720 416 mg/kg of diet, alone or with BSO 15 mM in drinking water) amounted to 20%. The “time within which tumor xenografts acquire resistance” value in the experiment on A375 xenografts (BRAFi treatment alone) is reported as at most 140 days. In addition, in the experiment with A375 xenografts (within 140 days, PLX4720 416 mg/kg of AIN-76A diet), the “tumors that acquired resistance to BRAFi treatment alone” value is given as “approximately 80%”.
